In patent publication US7332521B2, “Substituted indoles” (Wyeth, priority 2003, dated 2008):
pIC50: −log10 of the molar value.

What was measured:
[1] = target: T1, recombinant human plasminogen activator inhibitor-1 (PAI-1) (Homo sapiens, UniProt P05121); test: Primary screen for the PAI-1 inhibition (chromogenic tPA activity); assay type: biochemical; conditions: pH 6.6 buffer; for inhibition at 10 µM: 10 μM test compound; for inhibition at 25 µM: 25 μM test compound
T1 construct: purchased Molecular Innovations, Royal Oak, Mich
Description: Test compounds are dissolved in DMSO at a final concentration of 10 mM, then diluted 100× in physiologic buffer. The inhibitory assay is initiated by the addition of the test compound (1-100 μM final concentration, maximum DMSO concentration of 0.2%) in a pH 6.6 buffer containing 140 nM recombinant human plasminogen activator inhibitor-1 (PAI-1; Molecular Innovations, Royal Oak, Mich.). Following a 1 hour incubation at room temperature, 70 nM of recombinant human tissue plasminogen activator (tPA) is added, and the combination of the test compound, PAI-1 and tPA is incubated for an additional 30 minutes. Following the second incubation, Spectrozyme-tPA (American Diagnostica, Greenwich, Conn.), a chromogenic substrate for tPA, is added and absorbance read at 405 nm at 0 and 60 minutes. Relative PAI-1 inhibition is equal to the residual tPA activity in the presence of the test compound and PAI-1. Control treatments include the complete inhibition of tPA by PAI-1 at the molar ratio employed (2:1), and the absence of any effect of the test compound on tPA alone.

[2] = target: human PAI-1 (Homo sapiens, UniProt P05121); test: Assay for determining IC50 of inhibition of PAI-1 (active PAI-1 bound to tPA-coated plate); assay type: binding; conditions: pH 7.5 buffer
Description: This assay is based upon the non-SDS dissociable interaction between tPA and active PAI-1. Assay plates are initially coated with human tPA (10 μg/ml). Test compounds of the present invention are dissolved in DMSO at 10 mM, then diluted with physiologic buffer (pH 7.5) to a final concentration of 1-50 μM. Test compounds are incubated with human PAI-1 (50 ng/ml) for 15 minutes at room temperature. The tPA-coated plate is washed with a solution of 0.05% Tween 20 and 0.1% BSA, then the plate is blocked with a solution of 3% BSA. An aliquot of the subtituted indole/PAI-1 solution is then added to the tPA-coated plate, incubated at room temperature for 1 hour, and washed. Active PAI-1 bound to the plate is assessed by adding an aliquot of a 1:1000 dilution of the 33B8 monoclonal antibody against human PAI-1, and incubating the plate at room temperature for 1 hour (Molecular Innovations, Royal Oak, Mich.). […] The plate is incubated 45 minutes at room temperature, and color development is determined at OD405nm. The quantitation of active PAI-1 bound to tPA at varying concentrations of the test compound is used to determine the IC50. Results are analyzed using a logarithmic best-fit equation. The assay sensitivity is 5 ng/ml of human PAI-1 as determined from a standard curve ranging from 0-100 ng/ml.

T1 sequence (P05121 24-402): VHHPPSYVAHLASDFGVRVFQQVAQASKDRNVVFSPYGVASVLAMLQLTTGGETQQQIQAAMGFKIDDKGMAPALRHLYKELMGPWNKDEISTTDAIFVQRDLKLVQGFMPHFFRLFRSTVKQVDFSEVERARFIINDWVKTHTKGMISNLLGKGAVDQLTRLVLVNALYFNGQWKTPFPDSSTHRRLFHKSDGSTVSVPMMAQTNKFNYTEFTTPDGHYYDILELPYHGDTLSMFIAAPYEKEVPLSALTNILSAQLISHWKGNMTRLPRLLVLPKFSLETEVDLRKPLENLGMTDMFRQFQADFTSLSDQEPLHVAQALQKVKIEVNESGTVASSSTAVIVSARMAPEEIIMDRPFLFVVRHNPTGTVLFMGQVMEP
human PAI-1, sequence (P05121 24-402): as above

Row | SMILES | inhibition at 10 µM [1] [%] | inhibition at 25 µM [1] [%] | pIC50 [2]
1 | O=C(O)c1c(-c2ccccc2)c2cc(Nc3cccc4c3sc3ccccc34)ccc2n1Cc1ccccc1 [Compound 4, 1-benzyl-5-(dibenzo[b,d]thien-4-ylamino)-3-phenyl-1H-indole-2-carboxylic acid] | 39 | 66 | –
2 | CC(C)(C)c1ccc(Nc2ccc3c(c2)c(-c2ccccc2)c(C(=O)O)n3Cc2ccccc2)cc1 [Compound 2, 1-benzyl-5-[(4-tert-butylphenyl)amino]-3-phenyl-1H-indole-2-carboxylic acid] | 45 | 73 | –
3 | CC(C)(C)c1ccc(Nc2ccc3c(c2)c(-c2ccccc2)c(C(=O)O)n3Cc2ccc(-c3ccccc3)cc2)cc1 [Compound 5, 1-(1,1′-biphenyl-4-ylmethyl)-5-[(4-tert-butylphenyl)amino]-3-phenyl-1H-indole-2-carboxylic acid] | 52 | 80 | 4.92
4 | O=C(O)c1c(-c2ccccc2)c2cc(Nc3ccc(-c4ccccc4)cc3)ccc2n1Cc1ccccc1 [Compound 3, 1-benzyl-5-(1,1′-biphenyl-4-ylamino)-3-phenyl-1H-indole-2-carboxylic acid] | 36 | 71 | –
5 | Cc1cccc(Nc2ccc3c(c2)c(-c2ccccc2)c(C(=O)O)n3Cc2ccccc2)c1 [Compound 1, 1-benzyl-5-[(3-methylphenyl)amino]-3-phenyl-1H-indole-2-carboxylic acid] | 24 | 69 | –
